According to publication PMC9221851, “A Fluorescence-Based Competitive Antibody Binding Assay for Kynurenine, a Potential Biomarker of Kidney Transplant Failure” (Diagnostics, 2022):

Assays:
[1] = target: T1, anti-kynurenine antibody (monoclonal Mouse IgG1a k chain, clone 3D4-F2); assay: competitive magnetic bead immunoassay, displacement of fluorescent conjugate […] in PBS; type: binding
T1 construct: biotinylated whole antibody on streptavidin magnetic beads

[2] = target: T1, anti-kynurenine antibody (monoclonal Mouse IgG1a k chain, clone 3D4-F2); assay: magnetic bead immunoassay, fluorescence of unbound conjugate in supernatant; type: binding

Structure (SMILES) | IC50 [1] [µM] | Kd [2] [µM]
Nc1ccccc1C(=O)C[C@H](N)C(=O)O [L-kynurenine] | 4 | 
CCN(CC)c1ccc2c(-c3ccccc3C(=O)OCc3cn(CCOCCOCCOCCNC(=O)[C@@H](N)CC(=O)c4ccccc4N)nn3)c3ccc(N(CC)CC)cc3[o+]c2c1 [compound 5, L-Kyn-4EG-RhB] |  | 5.9
